The source of these data is article PMC9312206, “Atto488-Agitoxin 2—A Fluorescent Ligand with Increased Selectivity for Kv1.3 Channel Binding Site” (Bioengineering, 2022).

Assay [1] has as its system KcsA–Kv1.3 (Kv1.3 binding site). Put plainly: Competitive binding: displacement of A-AgTx2 from KcsA–Kv1.3 on E. coli spheroplasts. As to conditions: 1 h at 37 °C, pH 8.0; for displacement of A-AgTx2 from complexes with KcsA–Kv1.3 by peptide blockers (in words): tested AgTx2 0.4–50 nM, KTx1 0.04–2.5 nM, ChTx 10 nM, averaged over 3 independent experiments; for Kd: competition with A-AgTx2 10 nM, Kap = IC50/(1 + [L]/[Kd]), mean ± SEM, three independent measurements, read-out: apparent dissociation constant (Kap). As to the method:
(§1) E. coli spheroplasts expressing KcsA or chimeric KcsA–Kv1.x (x = 1, 3, 6) channels were prepared according to the previously developed protocol. Briefly, E. coli BL21 (DE3) cells (Novagen, Merck, Darmstadt, Germany), transformed either with the pET28a-KcsA, the pET28a-KcsA–Kv1.1, or the pET28a-KcsA–Kv1.3 plasmid, were cultivated in a minimal M9 medium at 37 °C up to OD560 = 0.8 optical units per cm (o.u./cm), induced with 50 μM isopropyl β-D-1-thiogalactopyranoside, and further grown at 37 °C for 20 h. The cells transformed with pET28a-KcsA–Kv1.6 were grown at 25 °C for 28 h after induction. To prepare the spheroplasts, cells were harvested by centrifugation (5000× g, 10 min, 4 °C), incubated in buffer A (10 mM Tris–HCl, pH 8.0, 0.5 M sucrose) containing lysozyme (20 μg/mL) for 7 min on ice, then diluted twofold with buffer B (10 mM Tris–HCl, pH 8.0, 0.3 mM ethylenediamine tetraacetic acid) and further incubated for 20 min. Finally, the spheroplasts (OD560 ≈ 0.5 o.u./cm) were stabilized by the addition of MgCl2 (10 mM) and stored at 4 °C.
(§2) All the experiments were performed in a buffer containing 50 mM Tris-HCl (pH 8.0), 4 mM KCl, 50 mM NaCl, 10 mM MgCl2, 0.3 mM EDTA, 250 mM sucrose, and 0.1% bovine serum albumin. In the binding experiments, the spheroplasts (1000 cells/μL) were incubated with different concentrations of A-AgTx2 (0.16–20 or 100 nM) or AgTx2-GFP (4 or 50 nM) for 1 h at 37 °C. In the competitive binding experiments, the spheroplasts were incubated with A-AgTx2 (10 nM) and with one of the following compounds for 1 h at 37 °C: AgTx2 (0.4–50 nM), KTx1 (0.04–2.5 nM), ChTx (10 nM), ScyTx (5 µM), tetraethylammonium (TEA, 10 mM).
(§3) After incubation with ligands, the spheroplasts were placed in a 12-well flexiPERM silicon chamber (Perbio, Aalst, Belgium) attached to a thin (0.15 mm) cover glass and were centrifuged at 200× g for 5 min to immobilize the spheroplasts to a cover glass. The microscopy studies were carried out with a laser scanning confocal microscope LSM 710 (Zeiss, Oberkochen, Germany) using the α Plan-Apochromat 100×/1.46 oil immersion objective. Fluorescence of A-AgTx2 and AgTx2-GFP was excited at the 488 nm wavelength and recorded in the 495–590 nm range, at a 0.25 μm lateral and ca. 1.5 μm axial resolution. Image J software (National Institutes of Health, Bethesda, MD, USA) was used to treat the images and define the fluorescence intensity of the ligand bound to each measured spheroplast and the average fluorescence intensity Ia of the bound fluorescent ligand (mean ± SEM, n = 130–230 cells per point).
The apparent dissociation constant (Kap) of non-labeled ligands (AgTx2, KTx1) was calculated using the data of competition binding experiments according to the procedure described elsewhere with the following equation: Kap = IC50/(1 + [L]/[Kd])(2) where [L] is a concentration of A-AgTx2 (10 nM), IC50 is the concentration of a non-labeled ligand that displaces 50% of A-AgTx2 from the complex with KcsA–Kv1.3. Kap was introduced instead of Kd to emphasize an indirect method (the competitive binding experiment) for its determination.
(§4) The Kd and Kap values from three independent measurements were averaged and presented as mean ± SEM.

For assay [2] the test system is unchanged. Put plainly: Direct binding of fluorescent ligand to hybrid KcsA–Kv1.3 on E. coli spheroplasts, confocal microscopy. As to the method: as §1, with “°C. To obtain spheroplasts from non-transformed cells, E. coli BL21 (DE3) cells were subjected to similar growth, induction, and treatment procedures.” for “°C.”
as §2, §3
The dissociation constants (Kd) of complexes between A-AgTx2 and KcsA–Kv1.3 were defined by fitting the experimental dependencies of Ia onto the concentration L of A-AgTx2 with the following equation:Ia ([L]) = Ias [L]/(Kd + [L])(1) where Ias is the Ia value when the A-AgTx2 binding is saturated.
as §4

Assay [3] concerns KcsA–Kv1.1 (Kv1.1 binding site). Put plainly: Direct binding of fluorescent ligand to hybrid KcsA–Kv1.1 on E. coli spheroplasts, confocal microscopy. As to conditions: A-AgTx2 100 nM, 1 h at 37 °C, pH 8.0. How it is done:
(§5) E. coli spheroplasts expressing KcsA or chimeric KcsA–Kv1.x (x = 1, 3, 6) channels were prepared according to the previously developed protocol. Briefly, E. coli BL21 (DE3) cells (Novagen, Merck, Darmstadt, Germany), transformed either with the pET28a-KcsA, the pET28a-KcsA–Kv1.1, or the pET28a-KcsA–Kv1.3 plasmid, were cultivated in a minimal M9 medium at 37 °C up to OD560 = 0.8 optical units per cm (o.u./cm), induced with 50 μM isopropyl β-D-1-thiogalactopyranoside, and further grown at 37 °C for 20 h. The cells transformed with pET28a-KcsA–Kv1.6 were grown at 25 °C for 28 h after induction. […]
as §3, with “The microscopy studies were carried out with a laser scanning confocal microscope LSM 710 (Zeiss, Oberkochen, Germany) using the α Plan-Apochromat 100×/1.46 oil immersion objective.” left out

Assay [4] has as its system KcsA–Kv1.6 (Kv1.6 binding site). Put plainly: Direct binding of fluorescent ligand to hybrid KcsA–Kv1.6 on E. coli spheroplasts, confocal microscopy. The following applies: A-AgTx2 100 nM, 1 h at 37 °C, pH 8.0. How it is done: as §5
as §3, with “The microscopy studies were carried out with a laser scanning confocal microscope LSM 710 (Zeiss, Oberkochen, Germany) using the α Plan-Apochromat 100×/1.46 oil immersion objective.” left out

Assay [5] concerns KcsA. Put plainly: Direct binding of fluorescent ligand to control spheroplasts expressing KcsA. The following applies: A-AgTx2 100 nM. How it is done: as §5
as §3, with “The microscopy studies were carried out with a laser scanning confocal microscope LSM 710 (Zeiss, Oberkochen, Germany) using the α Plan-Apochromat 100×/1.46 oil immersion objective.” left out

The test system of assay [6] is spheroplasts prepared from non-transformed cells. Put plainly: Direct binding of fluorescent ligand to control spheroplasts from non-transformed cells (plasma membrane). Further details: species or system E. coli BL21 (DE3). The following applies: A-AgTx2 100 nM. How it is done: as §5
as §3, with “The microscopy studies were carried out with a laser scanning confocal microscope LSM 710 (Zeiss, Oberkochen, Germany) using the α Plan-Apochromat 100×/1.46 oil immersion objective.” left out

For assay [7], the system named is Kv1.1 channel. The following applies: cited from earlier work. From the text: (§6) Differences between two labeled derivatives include the position of a label (carboxytetramehylrhodamine was located at the C-terminus of AgTx2 [11]), the number of charges, and the total charge at the labels. Atto488 bears two negatively and one positively charged groups (Figure 1C), while carboxytetramehylrhodamine bears one negative charge and one positive charge. It can be s ... || (+ 1 further places)

For assay [8], the system named is Kv1.6 channel. The following applies: cited from earlier work.
Text: as §6

In assay [9] the test system is Kv1.3 channel. The following applies: cited from earlier work. An excerpt:
High-affinity and genetically ... || Interactions of A-AgTx2 with the Kv1.3 binding site were further characterized using known small organic molecule (TEA) and peptide blockers (ChTx, KTx1, AgTx2) of the Kv1.3 channel.

In assay [10] the target is KcsA–Kv1.3. As to conditions: estimated previously; ref [15]; read-out: apparent dissociation constant, KcsA–Kv1.3-bearing spheroplasts and GFP-tagged AgTx2 ligand; cited from earlier work. As to the method:
Since the bioengineering system based on KcsA–Kv1.3-bearing spheroplasts is suitable for the quantitative analysis of the affinity of unlabeled pore blockers by measuring the competitive binding of the fluorescent ligand and the compound under study, we tested A-AgTx2 in such an analysis (Figure 4C). […] The concentrations of AgTx2 and KTx1 displacing 50% of A-AgTx2, which were determined from the measured dependences, made it possible to calculate the apparent dis ...

Assay [11] addresses Kv1.3 channel. As to conditions: read-out: Kd, electrophysiological studies, cited from earlier work.
Assay [12] relates to Shaker K^+ channel. The following applies: ref [1]; cited from earlier work. From the text:
The toxin contains a triple-stranded antiparallel β-sheet with two outer strands—S1 (Val2-Cys8) and S2 (Arg24-Met29)—and the central strand S3 (Lys32—Thr ...

For assay [13], the system named is KCa2.1 channel. The following applies: ref [18]; cited from earlier work.
Assay [14] relates to KCa2.2 channel. As to conditions: ref [18]; cited from earlier work.
The subject of assay [15] is KCa2.3 channel. As to conditions: ref [18]; cited from earlier work.

Entries after “also recorded” stand apart in the source; their conditions may differ. Read-outs that look alike come from different tables or passages of the source.

As for `CC[N+](CC)(CC)CC` [TEA, tetraethylammonium], the “displacement of A-AgTx2 from complexes with KcsA–Kv1.3 by TEA (in words)” value in assay [1] (A-AgTx2 10 nM, TEA 10 mM) is on record as “accomplished this at millimolar concentrations”.
Turning to Atto488-agitoxin 2 [A-AgTx2], the “affinity for the Kv1.3 binding site compared to the unlabeled AgTx2 (in words)” value in assay [2] is recorded as “decreased as compared to the unlabeled AgTx2”. The “binding of A-AgTx2 to spheroplasts expressing KcsA–Kv1.3 (in words)” value in assay [2] (A-AgTx2 20 nM, 1 h at 37 °C, pH 8.0) is “effectively binds to spheroplasts expressing KcsA–Kv1.3”. Further, the Kd in assay [2] (A-AgTx2 0.16–20 nM, 1 h at 37 °C, pH 8.0, 4 mM KCl, 50 mM NaCl, 0.1% BSA, mean ± SEM, n = 3, read-out: dissociation constant (Kd) of complexes with KcsA–Kv1.3) is 3.9 ± 0.2 nM. The “intensity of fluorescence detected from KcsA–Kv1.3-bearing spheroplasts relative to control spheroplasts (higher than)” value in assay [2] (A-AgTx2, control: spheroplasts expressing KcsA or not expressing heterologous channels, difference preserved with controls at fivefold higher A-AgTx2 concentration) is on record as “fifty”. Further, the “selectivity toward Kv1.3 as compared to the Kv1.1 and Kv1.6 binding sites (in words)” value in assay [2] (in contrast to non-modified AgTx2) is recorded as “considerably increased selectivity toward Kv1.3”. Also, the “binding of A-AgTx2 to KcsA–Kv1.1 / Kv1.1 binding site (in words)” value in assay [3] is “lose affinity for the Kv1.1 and Kv1.6 binding sites; also recorded: does not stain spheroplasts presenting KcsA–Kv1.1 or KcsA–Kv1.6; also recorded: inability of A-AgTx2 to interact with the Kv1.1 and Kv1.6 binding sites”. Also, the “binding of A-AgTx2 to KcsA–Kv1.6 / Kv1.6 binding site (in words)” value in assay [4] is “lose affinity for the Kv1.1 and Kv1.6 binding sites; also recorded: does not stain spheroplasts presenting KcsA–Kv1.1 or KcsA–Kv1.6; also recorded: inability of A-AgTx2 to interact with the Kv1.1 and Kv1.6 binding sites”. In addition, the “non-specific ligand binding to the KcsA channel scaffold (in words)” value in assay [5] is given as “very low”. The “non-specific ligand binding to plasma membrane (in words)” value in assay [6] was “very low”.
Consider “R-AgTx2: AgTx2 labeled with carboxytetramethylrhodamine at Lys38”, for which the “affinity for Kv1.1 binding site (in words)” value in assay [7] (ref [11],[12],[13]) is “nanomolar affinity”. The “affinity for Kv1.6 binding site (in words)” value in [8] (ref [11],[12],[13]) is “nanomolar affinity”. In assay [9] (ref [11],[12],[13]), the “affinity for Kv1.3 binding site (in words)” value is reported as “nanomolar affinity”.
agitoxin 2 [AgTx2]: the “displacement of A-AgTx2 from complexes with KcsA–Kv1.3 by peptide blockers (in words)” value (shortened to “displacement … by peptide blockers (in words)”) in assay [1] (A-AgTx2 10 nM) is reported as “displaced A-AgTx2 from the complexes with KcsA–Kv1.3 at nanomolar concentrations”. Besides, the results for the Kd in assay [1], in assay [10] and in [11] (ref [19]) were 0.54 ± 0.11 nM, 0.23 nM and 2 nM, respectively. Also, the “inhibition of Kv1.1 (in words)” value in assay [7] (mammalian channel, ref [1]) is “high-affinity inhibitor”. The “inhibition of Kv1.6 (in words)” value in assay [8] (mammalian channel, ref [1]) is listed as “high-affinity inhibitor”. For the same compound, the “inhibition of Kv1.3 (in words)” value in [9] (mammalian channel, ref [1]) is “high-affinity inhibitor”. Also, the “inhibition of Shaker K^+ channel (in words)” value in [12] is reported as “high-affinity inhibitor”.
Turning to charybdotoxin [ChTx], the “displacement … by peptide blockers (in words)” value in [1] (A-AgTx2 10 nM) is “displaced A-AgTx2 from the complexes with KcsA–Kv1.3 at nanomolar concentrations”.
In the case of kaliotoxin-1 [KTx1], the “displacement … by peptide blockers (in words)” value in assay [1] (A-AgTx2 10 nM) is given as “displaced A-AgTx2 from the complexes with KcsA–Kv1.3 at nanomolar concentrations”. The Kd in assay [1] was 0.06 ± 0.02 nM; in assay [10], 0.1 nM; in assay [11] (ref [20]) it was 0.1 nM.
For “scyllatoxin (AFCNLRMCQLSCRSLGLLGKCIGDKCECVKH; UniProt P16341 1-31, looked up) [ScyTx]”, the “displacement of A-AgTx2 from complexes with KcsA–Kv1.3 by control peptide (in words)” value in [1] (A-AgTx2 10 nM, ScyTx 5 µM) is reported as “did not disturb the complexes of A-AgTx2 with KcsA–Kv1.3”. Further, the “interaction with Kv1.3 (in words)” value in [9] (stated as known, ref [18]) is “does not interact with Kv1.3”. Moreover, the “block of KCa2.1 (in words)” value in assay [13] was “blocks the KCa2.1, KCa2.2, and KCa2.3 channels”. In assay [14], the “block of KCa2.2 (in words)” value was “blocks the KCa2.1, KCa2.2, and KCa2.3 channels”. Further, in assay [15], the “block of KCa2.3 (in words)” value was “blocks the KCa2.1, KCa2.2, and KCa2.3 channels”.
